# According to PubChem BioAssay (NCI):
#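 In this assay, cells in 96-well plates receive the compound at five concentrations for 48 hours. Endpoints are linearly interpolated between the surrounding concentrations. At the GI50, growth is halved. TGI: total growth inhibition.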
# Tests used:
# Test in all cases: NCI anticancer screen, dose series, 48 h
# [1] = system: MOLT-4 leukemia
# [2] = system: NCI-H226 lung
# [3] = system: NCI-H23 lung
# [4] = system: NCI-H460 lung
# [5] = system: NCI-H522 lung
# [6] = system: OVCAR-3 ovarian
# [7] = system: OVCAR-4 ovarian
# [8] = system: OVCAR-5 ovarian
# [9] = system: OVCAR-8 ovarian
# [10] = system: PC-3 prostate
# [11] = system: RPMI-8226 leukemia
# [12] = system: RXF 393 renal
# [13] = system: SF-268 CNS
# [14] = system: SF-295 CNS
# [15] = system: SF-539 CNS
# [16] = system: SK-MEL-28 melanoma
# [17] = system: SK-MEL-5 melanoma
# [18] = system: SK-OV-3 ovarian
# [19] = system: SN12C renal
# [20] = system: SNB-19 CNS
# [21] = system: SNB-75 CNS
# [22] = system: SR leukemia
# [23] = system: SW-620 colon
# [24] = system: T-47D breast
# [25] = system: TK-10 renal
# [26] = system: U251 CNS
# [27] = system: UACC-257 melanoma
# [28] = system: UACC-62 melanoma
# [29] = system: UO-31 renal
smiles,measurement,setting,value
COc1ccc(N2N=C(c3ccc4c(c3)OCO4)CC2c2cccc(NC(=O)CCNS(=O)(=O)c3ccc(Cl)cc3)c2)cc1 (configuration not stated),TGI,[1],> 100 µM
same,GI50,[2],18 µM
same,TGI,[2],> 100 µM
same,GI50,[3],22.6 µM
same,TGI,[3],> 100 µM
same,GI50,[4],11.3 µM
same,TGI,[4],> 100 µM
same,GI50,[5],2.73 µM
same,TGI,[5],7.92 µM
same,GI50,[6],47.6 µM
same,TGI,[6],> 100 µM
same,GI50,[7],19.1 µM
same,TGI,[7],> 100 µM
same,GI50,[8],51.6 µM
same,TGI,[8],> 100 µM
same,GI50,[9],82.8 µM
same,TGI,[9],> 100 µM
same,GI50,[10],4.61 µM
same,TGI,[10],> 100 µM
same,GI50,[11],6.44 µM
same,TGI,[11],> 100 µM
same,GI50,[12],4.98 µM
same,TGI,[12],> 100 µM
same,GI50,[13],11.6 µM
same,TGI,[13],> 100 µM
same,GI50,[14],5.22 µM
same,TGI,[14],72.2 µM
same,GI50,[15],17.5 µM
same,TGI,[15],> 100 µM
same,GI50,[16],7.37 µM
same,TGI,[16],> 100 µM
same,GI50,[17],22.8 µM
same,TGI,[17],> 100 µM
same,GI50,[18],54.7 µM
same,TGI,[18],> 100 µM
same,GI50,[19],14.4 µM
same,TGI,[19],> 100 µM
same,GI50,[20],16.4 µM
same,TGI,[20],> 100 µM
same,GI50,[21],9.46 µM
same,TGI,[21],> 100 µM
same,GI50,[22],4.68 µM
same,TGI,[22],> 100 µM
same,GI50,[23],41.1 µM
same,TGI,[23],> 100 µM
same,GI50,[24],7.96 µM
same,TGI,[24],> 100 µM
same,GI50,[25],38.6 µM
same,TGI,[25],> 100 µM
same,GI50,[26],20.5 µM
same,TGI,[26],> 100 µM
same,GI50,[27],77.1 µM
same,TGI,[27],> 100 µM
same,GI50,[28],20.4 µM
same,TGI,[28],> 100 µM
same,GI50,[29],15.6 µM
same,TGI,[29],> 100 µM
